Measurements from US4065619A, “7-(α-Sulfoacylamido)cephalosporins” (Takeda Chemical Industries, Ltd., priority 1971, dated 1977).
In brackets after ≈: the same amount, converted by molar mass.

Tests used:
Type in all cases: cell-based
[1] = test system: Pseudomonas aeruginosa (Pd 12); experiment: Minimum inhibitory concentration, Pseudomonas aeruginosa (Pd 12)
[2] = test system: Staphylococcus aureus (penicillin G resistant); experiment: Minimum inhibitory concentration, Staphylococcus aureus (penicillin G resistant)
[3] = test system: Pseudomonas aeruginosa (Pd 13); experiment: Minimum inhibitory concentration, Pseudomonas aeruginosa (Pd 13)
[4] = test system: Pseudomonas aeruginosa (NCTC 10490); experiment: Minimum inhibitory concentration, Pseudomonas aeruginosa (NCTC 10490); details: NCTC10490
[5] = test system: Staphylococcus aureus (209P); experiment: Minimum inhibitory concentration, Staphylococcus aureus 209P
[6] = test system: Pseudomonas aeruginosa (T-3); experiment: Minimum inhibitory concentration, Pseudomonas aeruginosa (T-3)
[7] = test system: Pseudomonas aeruginosa (Pd 1); experiment: Minimum inhibitory concentration, Pseudomonas aeruginosa (Pd 1)
[8] = test system: Pseudomonas aeruginosa (NCTC); experiment: Minimum inhibitory concentration, Pseudomonas aeruginosa (NCTC)
[9] = test system: Staphylococcus aureus (No. 87, penicillin G resistant); experiment: Minimum inhibitory concentration, Staphylococcus aureus (No. 87, penicillin G resistant)
[10] = test system: Pseudomonas aeruginosa (10490); experiment: Minimum inhibitory concentration, Pseudomonas aeruginosa (10490)
Pseudomonas aeruginosa = experiment: Minimum inhibitory concentration, Pseudomonas aeruginosa (strain not given)

O=C([O-])C1=C(C[n+]2cccc3ccccc32)CS[C@@H]2[C@H](NC(=O)C(c3ccccc3)S(=O)(=O)O)C(=O)N12 (some centres unmarked)
MIC [1]: 5 µg/mL (≈ 9.27 µM)

O=C([O-])C1=C(C[n+]2cccc(C(=O)O)c2)CS[C@@H]2[C@H](NC(=O)C(c3ccccc3)S(=O)(=O)O)C(=O)N12 (some centres unmarked)
MIC [1]: 5 µg/mL (≈ 9.37 µM)

NNC(=O)c1cc[n+](CC2=C(C(=O)[O-])N3C(=O)[C@@H](NC(=O)C(c4ccccc4)S(=O)(=O)O)[C@H]3SC2)cc1 (some centres unmarked)
MIC [1]: 10 µg/mL (≈ 18.3 µM)

NC(=O)c1ccc[n+](CC2=C(C(=O)[O-])N3C(=O)[C@@H](NC(=O)C(c4ccccc4)S(=O)(=O)O)[C@H]3SC2)c1 (some centres unmarked)
MIC [1]: 1 µg/mL (≈ 1.88 µM)

O=C([O-])C1=C(C[n+]2ccc3ccccc3c2)CS[C@@H]2[C@H](NC(=O)C(c3ccccc3)S(=O)(=O)O)C(=O)N12 (some centres unmarked)
MIC [1]: 5 µg/mL (≈ 9.27 µM)

O=C([O-])C1=C(C[n+]2ccccc2)CS[C@@H]2[C@H](NC(=O)C(c3ccccc3)S(=O)(=O)O)C(=O)N12 (some centres unmarked) [Example 1]
MIC [2]: 2 µg/mL (≈ 4.09 µM)
MIC [3]: 5 µg/mL (≈ 10.2 µM)
MIC [4]: 1 µg/mL (≈ 2.04 µM)
MIC [5]: 1 µg/mL (≈ 2.04 µM)
MIC [6]: 5 µg/mL (≈ 10.2 µM)
MIC [7]: 2 µg/mL (≈ 4.09 µM)
MIC [1]: 10 µg/mL (≈ 20.4 µM)

NC(=O)c1cc[n+](CC2=C(C(=O)[O-])N3C(=O)[C@@H](NC(=O)C(c4ccccc4)S(=O)(=O)O)[C@H]3SC2)cc1 (stereo partly drawn) [Example 3, sodium N-[7-(α-sulfophenylacetamido)ceph-3-em-3-ylmethyl]-4'-carbamoyl-pyridinium-4-carboxylate]
MIC [8]: 0.5 µg/mL
MIC [7]: 1 µg/mL

Cc1cccc[n+]1CC1=C(C(=O)[O-])N2C(=O)[C@@H](NC(=O)C(c3ccccc3)S(=O)(=O)O)[C@H]2SC1 (stereo partly drawn) [Example 5, sodium N-[7-(α-sulfophenylacetamido)-ceph-3-em-3-ylmethyl]-2'-methylpyridinium-4-carboxylate]
MIC [4]: 2 µg/mL
MIC [7]: 3 µg/mL

CCCCC(C(=O)NC1C(=O)N2C(C(=O)[O-])=C(C[n+]3ccccc3)CSC12)S(=O)(=O)O (centres unmarked) [Example 7]
MIC [9]: 2 µg/mL (≈ 4.26 µM)
MIC [10]: 2 µg/mL (≈ 4.26 µM)

Nc1ccc(C(C(=O)NC2C(=O)N3C(C(=O)[O-])=C(C[n+]4ccccc4)CSC23)S(=O)(=O)O)cc1 (stereo not drawn) [Example 9, sodium 7-[α-sulfo-α-(p-aminophenyl)acctamido]-3-(pyridiniummethyl)ceph-3-em-4-carboxylate]
MIC [5]: 5 µg/mL
MIC (Pseudomonas aeruginosa): 5 µg/mL

O=C([O-])C1=C(C[n+]2ccccc2)CS[C@@H]2[C@H](NC(=O)C(c3ccsc3)S(=O)(=O)O)C(=O)N12 (some centres unmarked) [Example 13]
MIC [4]: 1 µg/mL (≈ 2.02 µM)
MIC [7]: 2 µg/mL (≈ 4.04 µM)

NC(=O)c1cc[n+](CC2=C(C(=O)[O-])N3C(=O)[C@@H](NC(=O)C(c4ccccc4)S(=O)(=O)O)[C@H]3SC2)cc1 (some centres unmarked) [drawing 13]
MIC [1]: 0.5 µg/mL (≈ 0.939 µM)
